According to publication PMC6979384, “Characterization of the plant homeodomain (PHD) reader family for their histone tail interactions” (Epigenetics & Chromatin, 2020):

Tests used:
Assay in all cases: Histone peptide microarray
Assay type in all cases: binding, human
Details in all cases: sheet "Array Heatmap"
ING4 = test system: ING4
Outline: (§1)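 Binding read as mean relative signal from 4 replicates; microarray held 293 synthetic histone peptides with single or combinatorial PTMs. Each GST-tagged PHD reader was applied at 0.5 μM using the optimized Petell protocol.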

RAG2 = test system: RAG2
Outline: as §1

ING3 = test system: ING3
Outline: as §1

PHF23 = test system: PHF23
Outline: as §1

TAF3 = test system: TAF3
Outline: as §1

SP140L = test system: SP140L
Outline: as §1

ING5 = test system: ING5
Outline: as §1

KDM5A (1) = test system: KDM5A (1)
Outline: as §1

CHD5 (PPCC) = test system: CHD5 (PPCC)
Outline: as §1

CHD5 (PCC) = test system: CHD5 (PCC)
Outline: as §1

ING1 = test system: ING1
Outline: as §1

PHF13 = test system: PHF13
Outline: as §1

DPF2 (PPC2W2) = test system: DPF2 (PPC2W2)
Outline: as §1

PHF8 = test system: PHF8
Outline: as §1

BPTF (PB) = test system: BPTF (PB)
Outline: as §1

CHD4 (PPCC) = test system: CHD4 (PPCC)
Outline: as §1

DIDO1 = test system: DIDO1
Outline: as §1

KDM5A (3) = test system: KDM5A (3)
Outline: as §1

PHF21A = test system: PHF21A
Outline: as §1

ING2 = test system: ING2
Outline: as §1

KDM4C (TTP) = test system: KDM4C (TTP)
Outline: as §1

KDM5B (1) = test system: KDM5B (1)
Outline: as §1

BAZ2B = test system: BAZ2B
Outline: as §1

PHF2 = test system: PHF2
Outline: as §1

AIRE (PP) = test system: AIRE (PP)
Outline: as §1

PHRF1 (RP) = test system: PHRF1 (RP)
Outline: as §1

KDM5B (3) = test system: KDM5B (3)
Outline: as §1

TRIM66 (PB) = test system: TRIM66 (PB)
Outline: as §1

KDM7A = test system: KDM7A
Outline: as §1

MLL5 = test system: MLL5
Outline: as §1

MORC3 (CW) = test system: MORC3 (CW)
Outline: as §1

[1] = GST-tagged reader, histone peptide array, total n = 4

## H3.3 30-49: H3.3 30-49
ING4; GST-tagged ING4, arrays performed twice, total replicate number n = 4
  Array Heatmap signal, ING4: 0.4627
RAG2; GST-tagged RAG2, arrays performed twice, total replicate number n = 4
  Array Heatmap signal, RAG2: 0.2343
ING3; GST-tagged ING3, arrays performed twice, total replicate number n = 4
  Array Heatmap signal, ING3: 0.4515
PHF23; GST-tagged PHF23, arrays performed twice, total replicate number n = 4
  Array Heatmap signal, PHF23: 0.5238
TAF3; GST-tagged TAF3, arrays performed twice, total replicate number n = 4
  Array Heatmap signal, TAF3: 0.2689
SP140L; GST-tagged SP140L, arrays performed twice, total replicate number n = 4
  Array Heatmap signal, SP140L: 0.3561
ING5; GST-tagged ING5, arrays performed twice, total replicate number n = 4
  Array Heatmap signal, ING5: 0.3551
KDM5A (1); GST-tagged KDM5A (1), arrays performed twice, total replicate number n = 4
  Array Heatmap signal, KDM5A (1): 0.4724
CHD5 (PPCC); GST-tagged CHD5 (PPCC), arrays performed twice, total replicate number n = 4
  Array Heatmap signal, CHD5 (PPCC): 0.5477
CHD5 (PCC); GST-tagged CHD5 (PCC), arrays performed twice, total replicate number n = 4
  Array Heatmap signal, CHD5 (PCC): 0.7506
ING1; GST-tagged ING1, arrays performed twice, total replicate number n = 4
  Array Heatmap signal, ING1: 0.4817
PHF13; GST-tagged PHF13, arrays performed twice, total replicate number n = 4
  Array Heatmap signal, PHF13: 0.586
DPF2 (PPC2W2); GST-tagged DPF2 (PPC2W2), arrays performed twice, total replicate number n = 4
  Array Heatmap signal, DPF2 (PPC2W2): 0.6135
PHF8; GST-tagged PHF8, arrays performed twice, total replicate number n = 4
  Array Heatmap signal, PHF8: 0.3443
BPTF (PB); GST-tagged BPTF (PB), arrays performed twice, total replicate number n = 4
  Array Heatmap signal, BPTF (PB): 0.3385
CHD4 (PPCC); GST-tagged CHD4 (PPCC), arrays performed twice, total replicate number n = 4
  Array Heatmap signal, CHD4 (PPCC): 0.5572
DIDO1; GST-tagged DIDO1, arrays performed twice, total replicate number n = 4
  Array Heatmap signal, DIDO1: 0.5964
KDM5A (3); GST-tagged KDM5A (3), arrays performed twice, total replicate number n = 4
  Array Heatmap signal, KDM5A (3): 0.3975
PHF21A; GST-tagged PHF21A, arrays performed twice, total replicate number n = 4
  Array Heatmap signal, PHF21A: 0.447
ING2; GST-tagged ING2, arrays performed twice, total replicate number n = 4
  Array Heatmap signal, ING2: 0.5868
KDM4C (TTP); GST-tagged KDM4C (TTP), arrays performed twice, total replicate number n = 4
  Array Heatmap signal, KDM4C (TTP): 0.523
KDM5B (1); GST-tagged KDM5B (1), arrays performed twice, total replicate number n = 4
  Array Heatmap signal, KDM5B (1): 0.6846
BAZ2B; GST-tagged BAZ2B, arrays performed twice, total replicate number n = 4
  Array Heatmap signal, BAZ2B: 0.4498
PHF2; GST-tagged PHF2, arrays performed twice, total replicate number n = 4
  Array Heatmap signal, PHF2: 0.404
AIRE (PP); GST-tagged AIRE (PP), arrays performed twice, total replicate number n = 4
  Array Heatmap signal, AIRE (PP): 0.4614
PHRF1 (RP); GST-tagged PHRF1 (RP), arrays performed twice, total replicate number n = 4
  Array Heatmap signal, PHRF1 (RP): 0.4134
KDM5B (3); GST-tagged KDM5B (3), arrays performed twice, total replicate number n = 4
  Array Heatmap signal, KDM5B (3): 0.4643
TRIM66 (PB); GST-tagged TRIM66 (PB), arrays performed twice, total replicate number n = 4
  Array Heatmap signal, TRIM66 (PB): 0.5248
KDM7A; GST-tagged KDM7A, arrays performed twice, total replicate number n = 4
  Array Heatmap signal, KDM7A: 0.4094
MLL5; GST-tagged MLL5, arrays performed twice, total replicate number n = 4
  Array Heatmap signal, MLL5: 0.5124
MORC3 (CW); GST-tagged MORC3 (CW), arrays performed twice, total replicate number n = 4
  Array Heatmap signal, MORC3 (CW): 0.3401

## H3T6p: H3 1-20 [Peptide H3T6p]
ING4; [1]
  Array Heatmap signal, ING4: 0.5347
RAG2; [1]
  Array Heatmap signal, RAG2: 0.3038
ING3; [1]
  Array Heatmap signal, ING3: 0.5766
PHF23; [1]
  Array Heatmap signal, PHF23: 0.6281
TAF3; [1]
  Array Heatmap signal, TAF3: 0.311
SP140L; [1]
  Array Heatmap signal, SP140L: 0.3962
ING5; [1]
  Array Heatmap signal, ING5: 0.4298
KDM5A (1); [1]
  Array Heatmap signal, KDM5A (1): 0.5432
CHD5 (PPCC); [1]
  Array Heatmap signal, CHD5 (PPCC): 0.6595
CHD5 (PCC); [1]
  Array Heatmap signal, CHD5 (PCC): 0.9074
ING1; [1]
  Array Heatmap signal, ING1: 0.6423
PHF13; [1]
  Array Heatmap signal, PHF13: 0.7024
DPF2 (PPC2W2); [1]
  Array Heatmap signal, DPF2 (PPC2W2): 0.8292
PHF8; [1]
  Array Heatmap signal, PHF8: 0.4328
BPTF (PB); [1]
  Array Heatmap signal, BPTF (PB): 0.4149
CHD4 (PPCC); [1]
  Array Heatmap signal, CHD4 (PPCC): 0.6596
DIDO1; [1]
  Array Heatmap signal, DIDO1: 0.87
KDM5A (3); [1]
  Array Heatmap signal, KDM5A (3): 0.5721
PHF21A; [1]
  Array Heatmap signal, PHF21A: 0.4969
ING2; [1]
  Array Heatmap signal, ING2: 0.6272
KDM4C (TTP); [1]
  Array Heatmap signal, KDM4C (TTP): 0.5715
KDM5B (1); [1]
  Array Heatmap signal, KDM5B (1): 0.7098
BAZ2B; [1]
  Array Heatmap signal, BAZ2B: 0.5538
PHF2; [1]
  Array Heatmap signal, PHF2: 0.6372
AIRE (PP); [1]
  Array Heatmap signal, AIRE (PP): 0.5235
PHRF1 (RP); [1]
  Array Heatmap signal, PHRF1 (RP): 0.6983
KDM5B (3); [1]
  Array Heatmap signal, KDM5B (3): 0.5406
TRIM66 (PB); [1]
  Array Heatmap signal, TRIM66 (PB): 0.7122
KDM7A; [1]
  Array Heatmap signal, KDM7A: 0.3941
MLL5; [1]
  Array Heatmap signal, MLL5: 0.6202
MORC3 (CW); [1]
  Array Heatmap signal, MORC3 (CW): 0.5106
